Biological target: T1, Human Recombinant Matriptase 2 (Homo sapiens, UniProt Q8IU80)
T1 construct: purchased Enzo Life Sciences (an in-house preparation was also used) ALX-201-752-1
T1 sequence (Q8IU80 1-811): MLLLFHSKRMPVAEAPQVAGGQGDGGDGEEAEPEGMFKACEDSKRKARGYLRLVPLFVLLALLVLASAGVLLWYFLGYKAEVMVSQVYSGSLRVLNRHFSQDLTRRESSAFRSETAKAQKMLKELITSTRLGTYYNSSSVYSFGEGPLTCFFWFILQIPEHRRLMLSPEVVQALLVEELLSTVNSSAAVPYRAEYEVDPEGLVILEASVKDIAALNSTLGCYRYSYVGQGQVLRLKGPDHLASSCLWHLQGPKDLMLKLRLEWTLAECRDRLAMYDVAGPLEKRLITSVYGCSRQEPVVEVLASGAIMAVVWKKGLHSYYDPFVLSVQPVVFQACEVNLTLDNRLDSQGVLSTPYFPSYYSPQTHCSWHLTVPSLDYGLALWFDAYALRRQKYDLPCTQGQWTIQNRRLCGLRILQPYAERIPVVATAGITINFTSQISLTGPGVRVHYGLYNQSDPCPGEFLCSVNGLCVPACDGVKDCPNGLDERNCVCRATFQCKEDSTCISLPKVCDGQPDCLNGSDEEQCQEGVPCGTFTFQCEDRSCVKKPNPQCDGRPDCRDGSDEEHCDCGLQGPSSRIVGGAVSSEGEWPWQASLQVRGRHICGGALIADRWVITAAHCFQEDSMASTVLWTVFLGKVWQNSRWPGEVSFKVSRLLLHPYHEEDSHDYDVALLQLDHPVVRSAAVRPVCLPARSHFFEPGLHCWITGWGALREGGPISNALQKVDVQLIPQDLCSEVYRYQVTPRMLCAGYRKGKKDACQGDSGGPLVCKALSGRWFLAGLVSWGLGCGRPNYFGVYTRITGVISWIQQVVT
Test: Matriptase 2 fluorescence based inhibition assay, Method B (50 mM TRIS pH 7.5, 150 mM NaCl, 0.01% gelatin)
Assay type: biochemical
Conditions: 1 uM compound, Assay Used = B (Method B); for inhibition at 1 µM: read-out: Mar-2 % inhibition at 1 uM
In short: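 Commercial (7 nM) or in-house (15 nM) enzyme preincubated 30 min with compound at 25° C, then 100 μM Boc-Gln-Ala-Arg-AMC added; fluorescence (Ex 360/Em 480 nm) read at 60 min. 1% DMSO final. IC50 from variable-slope sigmoidal fit of % inhibition.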

Compound CC1CCCCN1CCCNC(=O)c1cc2ccc(C(=N)N)cc2n1Cc1cccc2ccccc12 (stereo not shown) [Compound I-683] has an inhibition at 1 µM of 50 to 75%.
For CO/N=C(\N)c1ccc2c(c1)c(Cc1cccc3ccccc13)c(C(=O)O)n2C [Compound I-684], the inhibition at 1 µM was 0 to 25%.
CCn1c(C(=O)O)c(Cc2cccc3ccccc23)c2cc(C(=N)N)ccc21 [Compound I-685] showed an inhibition at 1 µM of 50 to 75%.
COc1cccc(Oc2cc(Cn3c(C(=O)O)cc4ccc(C(=N)N)cc43)c3ccccc3c2)c1 [Compound I-686] was tested, and the inhibition at 1 µM was 50 to 75%.
N=C(N)c1ccc2cc(C(=O)N[C@H]3CC[C@H](N)CC3)n(Cc3cncc4ccccc34)c2c1 [Compound I-687] was tested, and the “Mar-2 % inhibition at 1 uM” value was “C (C represents 50%≤I≤75%)”.
In the case of COc1ccc(Oc2cc(Cn3c(C(=O)O)cc4ccc(C(=N)N)cc43)c3ccccc3c2)cc1 [Compound I-688], the inhibition at 1 µM is reported as 50 to 75%.
In the case of Cn1c(C(=O)O)c(Cc2cccc3ccccc23)c2cc(C(=N)N)ccc21 [Compound I-689], the inhibition at 1 µM is reported as 75 to 100%.
Work on N=C(N)c1cc2c(cn1)cc(C(=O)NC1CCC(N)CC1)n2Cc1cccc2ccccc12 (stereo not shown) [Compound I-690] yielded an inhibition at 1 µM of 75 to 100%.
N#Cc1ccc(Cn2c(C(=O)N[C@H]3CC[C@H](N)CC3)cc3ccc(C(=N)N)cc32)c2ccccc12 [Compound I-691] gave an inhibition at 1 µM of 75 to 100%.
Work on N=C(N)c1ccc2cc(C(=O)O)n(Cc3cc(N4CCOCC4=O)cc4ccccc34)c2c1 [Compound I-692] yielded an inhibition at 1 µM of 0 to 25%.
In the case of N=C(N)c1ccc2cc(C(=O)O)n(Cc3cc(Oc4ncccn4)cc4ccccc34)c2c1 [Compound I-693], the inhibition at 1 µM is reported as 75 to 100%.
N=C(N)c1ccc2cc(C(=O)N[C@H]3CC[C@H](N)CC3)n(Cc3cc(O)cc4ccccc34)c2c1 [Compound I-694] showed an inhibition at 1 µM of 75 to 100%.
With N=C(N)c1ccc2cc(C(=O)O)n(Cc3cc(O)cc4ccccc34)c2c1 [Compound I-695, 6-carbamimidoyl-1-((3-hydroxynaphthalen-1-yl)methyl)-1H-indole-2-carboxylic Acid] the inhibition at 1 µM was 75 to 100%.
Work on COC(=O)c1cc2ccc(C(=N)N)cc2n1Cc1cc(O)cc2ccccc12 [Compound I-696] yielded an inhibition at 1 µM of 50 to 75%.
CO/N=C(\N)c1ccc2cc(C(=O)OC)n(Cc3cccc4ccccc34)c2n1 [Compound I-697, Methyl (Z)-6-(N′-methoxycarbamimidoyl)-1-(naphthalen-1-ylmethyl)-1H-pyrrolo[2,3-b]pyridine-2-carboxylate] was tested, and the inhibition at 1 µM was 0 to 25%.
CO/N=C(/N)c1ccc2cc(C(=O)O)n(Cc3cccc4ccccc34)c2c1 [Compound I-699, (E)-6-(N′-methoxycarbamimidoyl)-1-(naphthalen-1-ylmethyl)-1H-indole-2-carboxylic Acid] was tested, and the inhibition at 1 µM was 0 to 25%.
COc1ccccc1Oc1cc(Cn2c(C(=O)N[C@H]3CC[C@H](N)CC3)cc3ccc(C(=N)N)cc32)c2ccccc2c1 [Compound I-700] showed an inhibition at 1 µM of 50 to 75%.
With N=C(N)c1ccc2cc(C(=O)N[C@H]3CC[C@H](N)CC3)n(Cc3ccc(Oc4ccccc4)c4ccccc34)c2c1 [Compound I-701] the inhibition at 1 µM was 75 to 100%.
N=C(N)c1ccc2cc(C(=O)N[C@H]3CC[C@H](N)CC3)n(Cc3cc(N4CCOCC4=O)cc4ccccc34)c2c1 [Compound I-702] showed an inhibition at 1 µM of 25 to 50%.
With N=C(N)c1ccc2cc(C(=O)O)n(Cc3csc4ccccc34)c2c1 [Compound I-703] the inhibition at 1 µM was 50 to 75%.
Work on CO/N=C(\N)c1ccc2cc(C(=O)O)n(Cc3cccc4ccccc34)c2n1 [Compound I-704, (Z)-6-(N′-methoxycarbamimidoyl)-1-(naphthalen-1-ylmethyl)-1H-pyrrolo[2,3-b]pyridine-2-carboxylic Acid] yielded an inhibition at 1 µM of 0 to 25%.
For N=C(N)c1ccc2cc(C(=O)O)n(Cc3ccc(Oc4ccccc4)c4ccccc34)c2c1 [Compound I-705], the inhibition at 1 µM was 50 to 75%.
Work on N=C(N)c1cc2c(cn1)cc(C(=O)O)n2Cc1cccc2ccccc12 [Compound I-706] yielded an inhibition at 1 µM of 25 to 50%.
N=C(N)c1ccc2cc(C(=O)N[C@H]3CC[C@H](N)CC3)n(Cc3cccc4cc(Oc5ccccc5)ccc34)c2c1 [Compound I-707] gave an inhibition at 1 µM of 75 to 100%.
In the case of COC(=O)c1cc2ccc(C(=N)N)cc2n1Cc1csc2ccccc12 [Compound I-708], the inhibition at 1 µM is reported as 25 to 50%.
With COc1ccccc1Oc1cc(Cn2c(C(=O)O)cc3ccc(C(=N)N)cc32)c2ccccc2c1 [Compound I-709] the inhibition at 1 µM was 25 to 50%.
N=C(N)c1ccc2cc(-c3nnnn3CCO)n(Cc3cccc4ccccc34)c2c1 [Compound I-710] showed an inhibition at 1 µM of 75 to 100%.
In the case of N=C(N)c1ccc2cc(C(=O)O)n(Cc3cc(Oc4ccc(-c5ccccc5)cc4)cc4ccccc34)c2c1 [Compound I-711], the inhibition at 1 µM is reported as 25 to 50%.
Compound CCOC(=O)NC(=N)c1ccc2cc(C(=O)O)n(Cc3cccc4ccccc34)c2c1 [Compound I-712] has an inhibition at 1 µM of 0 to 25%.
N=C(N)c1cnc2cc(C(=O)O)n(Cc3cccc4ccccc34)c2c1 [Compound I-713] showed an inhibition at 1 µM of 0 to 25%.
Cc1cnc(-c2cc3ccc(C(=N)N)cc3n2Cc2cccc3ccccc23)[nH]1 [Compound I-714] was tested, and the inhibition at 1 µM was 75 to 100%.
N=C(N)c1ccc2cc(C(=O)N[C@H]3CC[C@H](N)CC3)n(Cc3cc(Oc4ccc(-c5ccccc5)cc4)cc4ccccc34)c2c1 [Compound I-715] gave an inhibition at 1 µM of 0 to 25%.
N=C(N)c1ccc2cc(CC(=O)O)n(Cc3cccc4ccccc34)c2c1 [Compound I-716, 2-(6-carbamimidoyl-1-(naphthalen-1-ylmethyl)-1H-indol-2-yl)acetic Acid] showed an inhibition at 1 µM of 75 to 100%.
N=C(N)c1ccc2cc(CC(=O)N[C@H]3CC[C@H](N)CC3)n(Cc3cccc4ccccc34)c2c1 [Compound I-717] was tested, and the inhibition at 1 µM was 75 to 100%.
CO/N=C(\N)c1ccc2cc(C(=O)OC)n(Cc3cccc4ccccc34)c2c1 [Compound I-718, methyl (E)-6-(N′-methoxycarbamimidoyl)-1-(naphthalen-1-ylmethyl)-1H-indole-2-carboxylate] was tested, and the inhibition at 1 µM was 0 to 25%.
Work on CCOC(=O)c1cc2ccc(C(=N)NC(=O)OCC(C)C)cc2n1Cc1cccc2ccccc12 [Compound I-719, Ethyl 6-(N-(isobutoxycarbonyl)carbamimidoyl)-1-(naphthalen-1-ylmethyl)-1H-indole-2-carboxylate] yielded an inhibition at 1 µM of 0 to 25%.
Compound CCCCCCOC(=O)NC(=N)c1ccc2cc(C(=O)O)n(Cc3cccc4ccccc34)c2c1 [Compound I-720, Potassium 6-(N-((hexyloxy)carbonyl)carbamimidoyl)-1-(naphthalen-1-ylmethyl)-1H-indole-2-carboxylate] has an inhibition at 1 µM of 0 to 25%.
N=C(N)c1ccc2cc(C(=O)N[C@H]3CC[C@H](N)CC3)n(Cc3cc(Oc4ccccc4)cc4ccccc34)c2n1 [Compound I-721] was tested, and the inhibition at 1 µM was 75 to 100%.
Compound N=C(N)c1ccc2cc(C(=O)N[C@H]3CC[C@@H](N)CC3)n(Cc3csc4ccccc34)c2n1 [Compound I-722] has an inhibition at 1 µM of 75 to 100%.
With CS(=O)(=O)N[C@H]1CC[C@@H](NC(=O)c2cc3ccc(C(=N)N)nc3n2Cc2cccc3ccccc23)CC1 [Compound I-723] the inhibition at 1 µM was 75 to 100%.
Work on N=C(N)c1ccc2cc(C(=O)O)n(Cc3csc4ccccc34)c2n1 [Compound I-724] yielded an inhibition at 1 µM of 50 to 75%.
For N=C(N)c1ccc2cc(C(=O)N[C@H]3CC[C@H](N)CC3)n(Cc3cc(Sc4ccccc4)cc4ccccc34)c2c1 [Compound I-725], the inhibition at 1 µM was 75 to 100%.
N=C(N)c1ccc2cc(N3CCOC3=O)n(Cc3cccc4ccccc34)c2c1 [Compound I-726, 1-(naphthalen-1-ylmethyl)-2-(2-oxooxazolidin-3-yl)-1H-indole-6-carboximidamide] was tested, and the inhibition at 1 µM was 25 to 50%.
